Data from US20210254006A1, “METHODS OF CULTURING AND/OR EXPANDING STEM CELLS AND/OR LINEAGE COMMITTED PROGENITOR CELLS USING LACTAM COMPOUNDS” (IDEAYA BIOSCIENCES, INC., priority 2018, published 2021).

Assays:
[1] = test system: human CD34+ hematopoietic stem cells (HSC); experiment: Hematopoietic stem cell expansion, CD34+ cells by flow cytometry after 12-day culture; assay type: cell-based
Method: The ability of compounds of formula (I) to facilitate hematopoietic stem cell expansion was determined by testing 1-methyl-7-(2-methyl-4-(6-(trifluoromethyl)pyrido[3,2-d]pyrimidin-2-yl)phenyl)-6,7-dihydro-1H-pyrazolo[3,4-f][1,4]oxazepin-8(5H)-one (compound 1) and 3-methyl-5-(2-methyl-4-(6-(trifluoromethyl)quinazolin-2-yl)phenyl)-6,7-dihydropyrazolo[1,5-a]pyrazin-4(5H)-one (compound 2) as follows.
Isolated human CD34^+ hematopoietic stem cells (HSC) were obtained from AllCells (Alameda, Calif., USA). 5,000 HSC per well were cultivated in 100 μL HSC expansion media StemSpan SFEM (StemCell Technologies; Vancouver, BC, Canada) containing 1× antibiotics (Life Technologies, Carlsbad, Calif., USA), 100 ng/mL thrombopoietin, 100 ng/mL IL-6, 100 ng/mL Flt3 ligand and 100 ng/mL stem cell factor (all R&D Systems, Minneapolis, Minn., USA) in a flat bottom 96 well tissue culture plate. 100 μL of 3-fold serial diluted compound 1 or 2 (final concentration range 0.169-10,000 nM) was added at 2× of the final concentration to HSC culture and HSC culture plates were incubated in a humidity-controlled incubator at […], 5% CO2. After 12 days, the absolute viable cell counts from each well were determined. HSC were then stained in staining buffer composed of Hank's balanced salt solution with 2% fetal bovine serum and 2 mM EDTA (all Life Technologies) at 4° C. for 1 hour with anti-CD90 APC, anti-CD34 PerCP, anti-CD38 FITC, CD45RA PE-Cy7 and anti-CD133 PE antibodies (all BD Biosciences, San Jose, Calif., USA). HSC were washed with staining buffer and HSC were analyzed by multicolor phenotype flow cytometry. The percentages of CD34^+ cells were determined as percentage of total population. Absolute counts of each population were calculated from the total number of viable cells multiplied by the percentage of each population. The EC50 value for the frequency of CD34+ cells, defined as the compound concentration with half maximal response on the dose response curve, was calculated using Prism 7 (GraphPad Software, La Jolla, Calif., USA).

hAhR = biological target: T1, hAhR (Homo sapiens, UniProt P35869); experiment: AhR antagonist DRE-luciferase reporter transcriptional assay (TCDD-induced) in HEPG2 DRE-Luc cells; assay type: cell-based; details: relative IC50, HEPG2 DRE-Luc cells, 3 nM TCDD, 24 h incubation; read-out: IC50 hAhR (antagonist mode)
T1 construct: endogenous in cells; host or cells: HEPG2 cells with stably integrated Cignal XRE (DRE) luciferase reporter
T1 sequence (P35869 11-848): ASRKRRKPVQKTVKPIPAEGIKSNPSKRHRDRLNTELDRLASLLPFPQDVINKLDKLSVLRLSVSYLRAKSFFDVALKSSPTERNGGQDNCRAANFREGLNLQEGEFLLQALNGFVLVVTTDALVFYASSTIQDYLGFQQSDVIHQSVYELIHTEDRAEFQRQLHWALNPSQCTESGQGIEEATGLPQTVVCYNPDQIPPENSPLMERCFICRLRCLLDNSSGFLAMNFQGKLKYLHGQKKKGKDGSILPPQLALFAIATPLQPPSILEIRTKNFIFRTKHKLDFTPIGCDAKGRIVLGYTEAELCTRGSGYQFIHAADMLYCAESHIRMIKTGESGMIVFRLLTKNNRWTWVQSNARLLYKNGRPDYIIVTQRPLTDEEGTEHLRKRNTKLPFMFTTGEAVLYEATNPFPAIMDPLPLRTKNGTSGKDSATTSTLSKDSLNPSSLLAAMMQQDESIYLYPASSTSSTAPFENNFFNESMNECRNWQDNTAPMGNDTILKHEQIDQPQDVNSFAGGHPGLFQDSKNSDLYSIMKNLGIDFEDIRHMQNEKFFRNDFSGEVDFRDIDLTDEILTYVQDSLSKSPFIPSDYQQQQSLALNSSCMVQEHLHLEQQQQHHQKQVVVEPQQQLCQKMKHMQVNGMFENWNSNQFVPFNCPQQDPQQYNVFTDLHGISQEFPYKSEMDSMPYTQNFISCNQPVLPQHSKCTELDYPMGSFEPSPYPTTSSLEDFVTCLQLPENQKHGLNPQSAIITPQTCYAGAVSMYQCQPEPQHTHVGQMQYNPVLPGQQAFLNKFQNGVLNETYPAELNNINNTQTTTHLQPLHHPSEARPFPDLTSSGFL
Method: The ability of compounds of formula (I) to antagonize AhR was tested as follow. HEPG2 and HEPA1C1C7 cells were maintained in MEM and αMEM without nucleosides supplemented with 10% heat inactivated FBS respectively. Stably integrated DRE-luciferase cell lines were generated by transducing the both cell lines with Cignal XRE luciferase reporter (Qiagen) lentiviral particles according to the manufacturer protocol. For both cell lines, stably integrated reporter cell lines were selected for the presence of 2 μg/mL puromycin. Following selection of stably integrated cell line pools, clonal cell lines were isolated by limiting dilution in 96-well plates. […]
To determine AhR antagonist activity of compound of formula (I), the compounds were added in a semi-log dose response using a D300e Digital Dispenser (Tecan) followed normalization with vehicle (DMSO). […] Firefly luciferase activity was measured immediately following the addition of 50 μL Luciferase Assay Reagent (Promega). The percent maximal activity for each point was determined using the following equation: (RLUsample−RLUvehicle−TCDD)/(RLUvehicle+TCDD RLUvehicle−TCDD)*100. The relative IC50, defined as the compound concentration required to reduce the TCDD induced response between the top and bottom plateau of each individual dose response curve by half, for each compound was determined using Prism7 (GraphPad Software).

[2] = compound concentration 3,333 nM

## Cc1cc(-c2ncc3nc(C(F)(F)F)ccc3n2)ccc1N1CCOc2cnn(C)c2C1=O [Example 001, 1-methyl-7-(2-methyl-4-(6-(trifluoromethyl)pyrido[3,2-d]pyrimidin-2-yl)phenyl)-6,7-dihydro-1H-pyrazolo[3,4-f][1,4]oxazepin-8(5H)-one]
[1]; [2]
  CD34+ cell counts, fold expansion: 2.4 fold
  frequency of CD34+ HSC, fold increase: 3.1 fold

## Cc1cc(-c2ncc3cc(C(F)(F)F)ccc3n2)ccc1N1CCn2ncc(C)c2C1=O [Example 002, 3-methyl-5-(2-methyl-4-(6-(trifluoromethyl)quinazolin-2-yl)phenyl)-6,7-dihydropyrazolo[1,5-a]pyrazin-4(5H)-one]
[1]; compound concentration 1,111 nM
  frequency of CD34+ HSC, fold increase: 3.6 fold
[1]; compound concentration 10,000 nM
  CD34+ cell counts, fold expansion: 4.0 fold

## Cc1cc(-c2ncc3cc(C(F)(F)F)ccc3n2)ccc1N1CCOc2cn[nH]c2C1=O [Example 033, 7-(2-methyl-4-(6-(trifluoromethyl)quinazolin-2-yl)phenyl)-6,7-dihydro-1H-pyrazolo[3,4-f][1,4]oxazepin-8(5H)-one]
hAhR
  IC50: < 200 nM

## Cc1cc(-c2ncc3cc(C(F)(F)F)ccc3n2)ccc1N1CCOc2cnn(CCO)c2C1=O [Example 034, 1-(2-hydroxyethyl)-7-(2-methyl-4-(6-(trifluoromethyl)quinazolin-2-yl)phenyl)-6,7-dihydro-1H-pyrazolo[3,4-f][1,4]oxazepin-8(5H)-one]
hAhR
  IC50: 200 to 500 nM
